Experimental data taken from ChEMBL document CHEMBL1201862, “PubChem BioAssay data set” (2004).
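Where inhibition never reached the appropriate level, the endpoint shown equals the highest concentration tested. Otherwise, values were interpolated linearly from a five-concentration, 48-hour dose response in 96-well plates. GI50: concentration for 50% inhibition of growth.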 Calls of active or inactive are those of the source. No stated cut-off is given here; in the data, active = GI50 up to about 1.1 µM and inactive = higher.

Tests used:
Assay in all cases: inhibition of tumour cell growth, NCI panel, 48 h
OVCAR-8 = system: OVCAR-8
SK-MEL-5 = system: SK-MEL-5
NCI-H460 = system: NCI-H460
OVCAR-5 = system: OVCAR-5
SNB-75 = system: SNB-75
CCRF-CEM = system: CCRF-CEM
T47D = system: T47D
U-251 = system: U-251
HL-60 = system: HL-60
HT-29 = system: HT-29
ACHN = system: ACHN
SNB-19 = system: SNB-19
M14 = system: M14
OVCAR-3 = system: OVCAR-3
HCT-116 = system: HCT-116
SK-OV-3 = system: SK-OV-3
HOP-92 = system: HOP-92
Hs-578T = system: Hs-578T
MCF7 = system: MCF7
SW-620 = system: SW-620
A549 = system: A549
MOLT-4 = system: MOLT-4
HCC 2998 = system: HCC 2998
K562 = system: K562
PC-3 = system: PC-3
RXF 393 = system: RXF 393
HCT-15 = system: HCT-15
NCI-H522 = system: NCI-H522
OVCAR-4 = system: OVCAR-4
TK-10 = system: TK-10
COLO 205 = system: COLO 205
SF-295 = system: SF-295
DU-145 = system: DU-145
CAKI-1 = system: CAKI-1
KM12 = system: KM12
786-0 = system: 786-0
NCI-H23 = system: NCI-H23
NCI/ADR-RES = system: NCI/ADR-RES
MDA-MB-435 = system: MDA-MB-435
IGROV-1 = system: IGROV-1
SN12C = system: SN12C
EKVX = system: EKVX
Malme-3M = system: Malme-3M
SK-MEL-28 = system: SK-MEL-28
SF-539 = system: SF-539
SK-MEL-2 = system: SK-MEL-2
HOP-62 = system: HOP-62
SF-268 = system: SF-268
UACC-257 = system: UACC-257
UACC-62 = system: UACC-62
UO-31 = system: UO-31
SR = system: SR
A498 = system: A498
MDA-MB-231 = system: MDA-MB-231
LOX IMVI = system: LOX IMVI
RPMI-8226 = system: RPMI-8226
NCI-H226 = system: NCI-H226
MDA-N = system: MDA-N
BT-549 = system: BT-549

CS/C(=N\C#N)S/C=C/C(=O)c1ccc(Cl)cc1
GI50 (OVCAR-8): 20.2 µM (inactive)
GI50 (SK-MEL-5): 15.9 µM (inactive)
GI50 (NCI-H460): > 100 µM (inactive)
GI50 (OVCAR-5): 39.4 µM (inactive)
GI50 (SNB-75): 43 µM (inactive)
GI50 (CCRF-CEM): 78.5 µM (inactive)
GI50 (T47D): 25 µM (inactive)
GI50 (U-251): 31.9 µM (inactive)
GI50 (HL-60): 8.15 µM (inactive)
GI50 (HT-29): 21.8 µM (inactive)
GI50 (ACHN): 34.4 µM (inactive)
GI50 (SNB-19): 42 µM (inactive)
GI50 (M14): 22.3 µM (inactive)
GI50 (OVCAR-3): 15.2 µM (inactive)
GI50 (HCT-116): 18.5 µM (inactive)
GI50 (SK-OV-3): 42.7 µM (inactive)
GI50 (HOP-92): 88.5 µM (inactive)
GI50 (Hs-578T): 32.7 µM (inactive)
GI50 (MCF7): 26.4 µM (inactive)
GI50 (SW-620): 15.6 µM (inactive)
GI50 (A549): > 100 µM (inactive)
GI50 (MOLT-4): < 0.01 µM (active)
GI50 (HCC 2998): 42.4 µM (inactive)
GI50 (K562): 10.5 µM (inactive)
GI50 (PC-3): 46.6 µM (inactive)
GI50 (RXF 393): 19.6 µM (inactive)
GI50 (HCT-15): 30.2 µM
GI50 (NCI-H522): 18.3 µM (inactive)
GI50 (OVCAR-4): 64.7 µM (inactive)
GI50 (TK-10): 23.6 µM (inactive)
GI50 (COLO 205): 25.4 µM (inactive)
GI50 (SF-295): 29.1 µM (inactive)
GI50 (DU-145): 25.6 µM (inactive)
GI50 (CAKI-1): 6.52 µM (inactive)
GI50 (KM12): 45.7 µM (inactive)
GI50 (786-0): 20.8 µM (inactive)
GI50 (NCI-H23): 24.9 µM (inactive)
GI50 (NCI/ADR-RES): 27.7 µM (inactive)
GI50 (MDA-MB-435): 24.9 µM (inactive)
GI50 (IGROV-1): 18.3 µM (inactive)
GI50 (SN12C): 26.2 µM (inactive)
GI50 (EKVX): 66.5 µM (inactive)
GI50 (Malme-3M): 26.4 µM (inactive)
GI50 (SK-MEL-28): 20.6 µM (inactive)
GI50 (SF-539): 20.8 µM (inactive)
GI50 (SK-MEL-2): 17.6 µM (inactive)
GI50 (HOP-62): 38.2 µM (inactive)
GI50 (SF-268): 22.5 µM (inactive)
GI50 (UACC-257): 20.9 µM (inactive)
GI50 (UACC-62): 22.9 µM (inactive)
GI50 (UO-31): 18.3 µM (inactive)
GI50 (SR): 3.13 µM (inactive)

O=c1/c(=C\c2ccccc2)sc2n1C(c1ccccc1)C1(O)CCCCC1N=2 (stereo not given)
GI50 (OVCAR-8): > 100 µM (inactive)
GI50 (SK-MEL-5): > 100 µM (inactive)
GI50 (A498): 36.8 µM (inactive)
GI50 (NCI-H460): 90.2 µM (inactive)
GI50 (OVCAR-5): > 100 µM (inactive)
GI50 (SNB-75): > 100 µM (inactive)
GI50 (CCRF-CEM): 91 µM (inactive)
GI50 (T47D): 51.5 µM (inactive)
GI50 (U-251): > 100 µM (inactive)
GI50 (HL-60): 36 µM (inactive)
GI50 (HT-29): > 100 µM (inactive)
GI50 (ACHN): 87.9 µM (inactive)
GI50 (SNB-19): > 100 µM (inactive)
GI50 (MDA-MB-231): 95.7 µM (inactive)
GI50 (LOX IMVI): > 100 µM (inactive)
GI50 (M14): > 100 µM (inactive)
GI50 (OVCAR-3): > 100 µM (inactive)
GI50 (HCT-116): 51.3 µM (inactive)
GI50 (MCF7): 43.7 µM (inactive)
GI50 (RPMI-8226): 59.8 µM (inactive)
GI50 (SW-620): > 100 µM (inactive)
GI50 (A549): 78.3 µM (inactive)
GI50 (MOLT-4): 42.1 µM (inactive)
GI50 (HCC 2998): 67.1 µM (inactive)
GI50 (K562): 45.2 µM (inactive)
GI50 (PC-3): 69.7 µM (inactive)
GI50 (HCT-15): > 100 µM
GI50 (NCI-H522): > 100 µM (inactive)
GI50 (OVCAR-4): 50.6 µM (inactive)
GI50 (TK-10): > 100 µM (inactive)
GI50 (NCI-H226): > 100 µM (inactive)
GI50 (MDA-N): > 100 µM (inactive)
GI50 (CAKI-1): > 100 µM (inactive)
GI50 (786-0): > 100 µM (inactive)
GI50 (NCI-H23): 56.9 µM (inactive)
GI50 (MDA-MB-435): > 100 µM (inactive)
GI50 (IGROV-1): > 100 µM (inactive)
GI50 (SN12C): > 100 µM (inactive)
GI50 (Malme-3M): > 100 µM (inactive)
GI50 (SK-MEL-28): > 100 µM (inactive)
GI50 (SK-MEL-2): 62.1 µM (inactive)
GI50 (HOP-62): > 100 µM (inactive)
GI50 (SF-268): > 100 µM (inactive)
GI50 (UACC-257): > 100 µM (inactive)
GI50 (BT-549): > 100 µM (inactive)
GI50 (UACC-62): > 100 µM (inactive)
GI50 (UO-31): 44.2 µM (inactive)
GI50 (SR): 62.5 µM (inactive)

NCc1ccc(C(=O)O)cc1 [AMINOMETHYLBENZOIC ACID]
GI50 (OVCAR-8): > 100 µM (inactive)
GI50 (SK-MEL-5): > 100 µM (inactive)
GI50 (A498): > 100 µM (inactive)
GI50 (NCI-H460): > 100 µM (inactive)
GI50 (OVCAR-5): > 100 µM (inactive)
GI50 (T47D): > 100 µM (inactive)
GI50 (U-251): > 100 µM (inactive)
GI50 (HL-60): > 100 µM (inactive)
GI50 (HT-29): > 100 µM (inactive)
GI50 (ACHN): > 100 µM (inactive)
GI50 (SNB-19): > 100 µM (inactive)
GI50 (MDA-MB-231): > 100 µM (inactive)
GI50 (LOX IMVI): > 100 µM (inactive)
GI50 (M14): > 100 µM (inactive)
GI50 (OVCAR-3): > 100 µM (inactive)
GI50 (HCT-116): > 100 µM (inactive)
GI50 (HOP-92): > 100 µM (inactive)
GI50 (SW-620): > 100 µM (inactive)
GI50 (A549): > 100 µM (inactive)
GI50 (MOLT-4): > 100 µM (inactive)
GI50 (HCC 2998): > 100 µM (inactive)
GI50 (K562): > 100 µM (inactive)
GI50 (PC-3): > 100 µM (inactive)
GI50 (RXF 393): > 100 µM (inactive)
GI50 (HCT-15): > 100 µM
GI50 (NCI-H522): > 100 µM (inactive)
GI50 (OVCAR-4): > 100 µM (inactive)
GI50 (TK-10): > 100 µM (inactive)
GI50 (NCI-H226): > 100 µM (inactive)
GI50 (SF-295): > 100 µM (inactive)
GI50 (MDA-N): > 100 µM (inactive)
GI50 (DU-145): > 100 µM (inactive)
GI50 (CAKI-1): > 100 µM (inactive)
GI50 (KM12): > 100 µM (inactive)
GI50 (786-0): > 100 µM (inactive)
GI50 (NCI-H23): > 100 µM (inactive)
GI50 (NCI/ADR-RES): > 100 µM (inactive)
GI50 (MDA-MB-435): > 100 µM (inactive)
GI50 (IGROV-1): > 100 µM (inactive)
GI50 (SN12C): > 100 µM (inactive)
GI50 (EKVX): > 100 µM (inactive)
GI50 (Malme-3M): > 100 µM (inactive)
GI50 (SK-MEL-28): > 100 µM (inactive)
GI50 (HOP-62): > 100 µM (inactive)
GI50 (SF-268): > 100 µM (inactive)
GI50 (UACC-257): > 100 µM (inactive)
GI50 (BT-549): > 100 µM (inactive)
GI50 (UACC-62): > 100 µM (inactive)
GI50 (UO-31): > 100 µM (inactive)
GI50 (SR): > 100 µM (inactive)
